The text below walks through data of US9655912B2, “Reduction of gastrointestinal tract colonisation by campylobacter” (priority 2012, dated 2017).

In one experiment the test system is C. jejuni. In words: ELISA: inhibition of C. jejuni adherence to BgAgs (Core-I, Core-II, H-I, H-II, Leb, Ley, Lex) by Ferric Quinate. It counts as binding, Campylobacter jejuni. The following applies: for Inhibition of C. jejuni binding to BgAgs: 34 μM Fe(QA)3, pre-incubation and post-treatment, ELISA. As for the experimental part: The inhibitory potential of Ferric Quinate Fe(QA)3 on adherence of C. jejuni was analyzed by ELISA using BgAgs (Core-I, Core-II, H-I, H-II, Leb, Ley and Lex). C. jejuni was pre-incubated with 34 μM Fe(QA)3 and specific inhibition was also analyzed by post-treatment of C. jejuni with Fe(QA)3 which bound to BgAgs at the time.

For a further experiment, the system named is C. jejuni NCTC11168-O. In words: Chicken caecal colonisation after oral challenge, Ferric Quinate as additive to water. The following applies: 0.34 mM in water, 6-weeks old birds, 3 and 7 days post-challenge. It counts as in vivo. As for the experimental part: These inhibitory properties against C. jejuni adherence to BgAgs were analyzed in vivo. Ferric Quinate was used as an additive to water (0.034-0.34 mM) and as an inhibitor of C. jejuni NCTC11168 strain adherence to, and thus colonization, in the chicken intestinal tract. 6-weeks old birds (n=10 per group) were challenged with 3×10^3-5 cfu wild-type strain NCTC11168-O by oral gavage. Caecal colonisation levels were determined in birds from each group at 3 and 7 days post-challenge.

The subject of experiment [1] is C. jejuni NCTC11168 strain. In words: Growth of C. jejuni in culture medium supplemented with Fe(QA)3. It is filed as cell-based, Campylobacter jejuni. Conditions: 34 and 340 μM in culture medium. An excerpt:
To further clarify the growth-effect properties of Fe(QA)3, we investigated the effect of adding Fe(QA)3 to the culture medium.

The test system of experiment [2] is C. jejuni strain NCTC11168. In words: Inhibition ELISA of binding of strain NCTC11168 to H-II glycoconjugate. Also noted: species or system Campylobacter jejuni. Conditions: p<0.001, FIG. 2A. As to the method: Purified MOMP from NCTC11168 (MOMP(+)), and pre-incubation of NCTC11168 bacterial cells with H-II glycoconjugate (H-II). […] B) ELISA plate was coated with a selection of BgAgs. Specific binding was calculated by subtracting the BSA (negative control) values from the BgAg absorbance at 405 nm. Strain NCTC11168 and Cj-266 (high binder strain, S3—Table 1), and corresponding ΔflaA mutants, have been examined for binding to Le^b, H-II, H-I, Le^x and Le^a. t-test confirmed the reduction in binding seen with mutants are significant (Le^b; p=2.5E-05, H-II; p=0.012, H-I; p=0.001, Le^x; p=0.029 and Le^a; p=0.000) in strain NCTC11168. However, Cj-266ΔflaA mutation had no effect on binding, which indicates the binding capacity was compensated by MOMP protein. Each group of bars from left to right: NCTC11168, 11168-ΔflaA, Cj-266, Cj-266ΔflaA. C) A double mutant (DM) of ΔflaA and single substitution of glycosylation site in MOMP protein (Thr^268 was substituted with Gly) was constructed in both strain NCTC11168 and Cj-266, and the binding to Le^b H-I and H-II was examined. […] Each group of bars from left to right: Leb, H-II, H-1.
Deletion mutant of ΔflaA in strains NCTC11168 and Cj-266 (a clinical isolate, S3—Table) were constructed.
(In general: ELISA stands for enzyme-linked immunosorbent assay.)

As for `O=C(O)[C@]1(O)C[C@@H](O)[C@@H](O)[C@H](O)C1` [Quinic Acid, D-(−)-quinic acid, reference compound], the “Inhibition of C. jejuni binding to BgAgs” value in the experiment with C. jejuni is “no inhibition”.
Turning to Ferric quinate [Fe(QA)3], the “Reduction of adhesion of C. jejuni to the intestinal mucosa (caecal colonisation)” value in the experiment with C. jejuni NCTC11168-O is given as 2-3 Log. The “Inhibition of C. jejuni binding to BgAgs” value in the experiment on C. jejuni is given as 90%. The “Inhibition of microbial adherence, bacterial culture (MH) containing Fe(QA)3” value with C. jejuni (bacteria cultured on MH containing Fe(QA)3) is listed as “reproducible inhibition”. Moreover, in the experiment with C. jejuni (sequential passages (P) of bacteria to new plate containing Fe(QA)3), the “Resistance concerning the binding abilities after sequential passages” value is “didn't cause any resistance”. For the same molecule, in experiment [1], the “Effect on growth of C. jejuni NCTC11168” value is on record as “did not affect the growth”.

B1: MOMP(+): major outer membrane protein purified under native conditions from C. jejuni strain NCTC11168 (protein)
chain: TPLEEAIKDVDVSGVLRYRYDTGNFDKNFVNNSNLNNSKQDHKYRAQVNFSAAIADNFKAFVQFDYNAADGGYGANGIKNDQKGLFVRQLYLTYTNEDVATSVIAGKQQLNLIWTDNAIDGLVGTGVKVVNNSIDGLTLAAFAVDSFMAAEQGADLLEHSNISTTSNQAPFKVDSVGNLYGAAAVGSYDLAGGQFNPQLWLAYWDQVAFFYAVDAAYSTTIFDGINWTLEGAYLGNSLDSELDDKTHANGNLFALKGSIEVNGWDASLGGLYYGDKEKASTVVIEDQGNLGSLLAGEEIFYTTGSRLNGDTGRNIFGYVTGGYTFNETVRVGADFVYGGTKTEAANHLGGGKKLEAVARVDYKYSPKLNFSAFYSYVNLDQGVNTNESADHSTVRLQALYKF
Regarding B1, the “Bacterial binding to H-II antigen” value in experiment [2] is on record as “significantly reduced”; in experiment [2] (listed as purified MOMP), “significantly inhibited”.
